The values that follow come from PMC7712488 (Vaccines, 2020).

This assay deals with DQ0602. The assay can be described thus: DQ0602 peptide competition binding assay (vs Bio-EBV epitope, DELFIA TRF). Conditions: 40 μM competitor vs 1 μM Bio-EBV, 25 nM DQ0602, pH 4.6, 3 days 37 °C, duplicate, <25% strong, 25–50% weak binder; for %DQ6-EBV Binding (X179A motif): Suppl Table 1, reference motif of X179A; for %DQ6-EBV Binding (PH1N1 motif): Suppl Table 1, wild type pH1N1 motif; for %DQ6-EBV Binding (PANDEMRIX motif): Suppl Table 1, motif in Pandemrix.

Protocol: The reaction was quenched by adding two volumes of neutralization buffer (100 mM Tris-HCl, pH = 8.6, 150 mM NaCl, 1% BSA, 0.5 Nonidet P-40 (IGEPAL CA-630, Sigma), 0.1% NaN3). Monoclonal anti-DQ (SPV-L3) antibodies (Cat# BNUM0200-50, Biotium, Fremont, CA, USA) (1:400 dilution in 100 mM carbonate-bicarbonate buffer, pH = 9.5) were coated onto a high binding 96-well plate (REF# 9018, Corning), and incubated with neutralized reaction for 1–2 h at room temperature (RT). After washing five times with 300 μL/well of wash buffer (phosphate-buffered saline (PBS), 0.05% Tween-20, pH = 7.4), 100 μL/well of Europium (Eu)-labelled streptavidin (Cat# 1244–360, PerkinElmer, Waltham, MA, USA) (1:1000 dilution in PBS, 1% BSA, pH = 7.4) was added and incubated for 1 h at RT. After washing 5 times again with 300 μL/well of wash buffer, DELFIA® time-resolved fluorescence (TRF) intensity was detected using a Tecan Infinite® M1000 after adding 100 μL/well of enhancement solution (Cat# 1244–105, PerkinElmer). Non-specific binding was removed through extensive wash with wash buffer.
A combination of in-vitro and in-silico methods was adopted to address this question. We synthesized 15 mer peptide stretches overlapping by 4mers using the most abundant viral proteins (HA, NA, NP, M1 & PB2) from reference strains (X179A and wild type pH1N1) as a template. […] In this way, a database of experimentally derived peptide binders from the abundant viral proteins was built. Next, we compared the mutated motifs (Table 3) from the vaccines to the reference motifs already tested for DQ0602 binding.

With NNAKEIGNGC[F]EFYHKCDNT, the “%DQ6-EBV Binding (X179A motif)” value was determined as 79.28% and the “%DQ6-EBV Binding (PH1N1 motif)” value turned out to be 79.28%.

For MASQGTKRSY[E]QMETDGERQ, the “%DQ6-EBV Binding (X179A motif)” value is on record as 67.56%. For the substance DPNNMDKAVK[L > M]YRKLKREIT, the “%DQ6-EBV Binding (PANDEMRIX motif)” value was determined as 71.82%.

In the case of QGRGVFELSD[E]KAASPIVPS, the “%DQ6-EBV Binding (PANDEMRIX motif)” value turned out to be 14.93% and the “%DQ6-EBV Binding (X179A motif)” value is 14.93%. In the case of QVYSLIRPNE[N]PAHKSQLVW, the “%DQ6-EBV Binding (X179A motif)” value is 48.19%. Regarding VGKEFNHLEK[R]IENLNKKVD, the “%DQ6-EBV Binding (X179A motif)” value was 80.71% and the “%DQ6-EBV Binding (PH1N1 motif)” value worked out at 80.71%. Consider MASQGTKRSY[E]QMETGGERQ, for which the “%DQ6-EBV Binding (PH1N1 motif)” value is reported as 71.8%. As for NTSLPFQNIH[P]ITIGKCPKY, the “%DQ6-EBV Binding (X179A motif)” value stood at 56.53% and the “%DQ6-EBV Binding (PH1N1 motif)” value is 56.53%. On to QGRGVFELSD[E]KATNPIVPS, for which the “%DQ6-EBV Binding (PH1N1 motif)” value is 39.96%. Consider NALNGNGDPN[N > D]MDKAVKLYR, for which the “%DQ6-EBV Binding (PANDEMRIX motif)” value came to 27.47%. On the same count and under the same terms, the same measure for VGKEFNHLEK[R > I]IENLNKKVD: 42.31%. In the case of NALNGNGDPN[N]MDRAVKLYK, the “%DQ6-EBV Binding (PH1N1 motif)” value is reported as 21.69%. As to LQRRRFVQNA[L]NGNGDPNNM, the “%DQ6-EBV Binding (X179A motif)” value came to 83.1% and the “%DQ6-EBV Binding (PH1N1 motif)” value stood at 83.1%. With QNALNGNGDP[N > D]NMDKAVKLY, the “%DQ6-EBV Binding (PANDEMRIX motif)” value is on record as 6.87%. As to QRRRFVQNAL[N]GNGDPNNMD, the “%DQ6-EBV Binding (X179A motif)” value was 66.28% and the “%DQ6-EBV Binding (PH1N1 motif)” value was determined as 66.28%. LEVLMEWLKT[R > I]PILSPLTKG: the “%DQ6-EBV Binding (PANDEMRIX motif)” value was 51.58%. For QNALNGNGDP[N]NMDKAVKLY, the “%DQ6-EBV Binding (X179A motif)” value is 6.01%.

In the case of DPNNMDKAVK[L]YRKLKREIT, the “%DQ6-EBV Binding (X179A motif)” value stood at 73.65%.

As for LQRRRFVQNA[L > P]NGNGDPNNM, the “%DQ6-EBV Binding (PANDEMRIX motif)” value amounted to 88.31%. For LEALMEWLKT[R]PILSPLTKG, the “%DQ6-EBV Binding (PH1N1 motif)” value came out at 31.61%. As to QVVSLMRPNE[N]PAHKSQLVW, the “%DQ6-EBV Binding (PH1N1 motif)” value is listed as 31.89%. Take NNAKEIGNGC[F > Y]EFYHKCDNT: the “%DQ6-EBV Binding (PANDEMRIX motif)” value was 84.06%.

Take QVYSLIRPNE[N > D]PAHKSQLVW: the “%DQ6-EBV Binding (PANDEMRIX motif)” value is listed as 35.94%. With QRRRFVQNAL[N > D]GNGDPNNMD, the “%DQ6-EBV Binding (PANDEMRIX motif)” value amounted to 77.89%.

For the substance NTSLPFQNIH[P > Q]ITIGKCPKY, the “%DQ6-EBV Binding (PANDEMRIX motif)” value is 42.35%.

With DPNNMDRAVK[L]YKKLKREIT, the “%DQ6-EBV Binding (PH1N1 motif)” value is recorded as 67.01%. Turning to MASQGTKRSY[E > Q]QMETDGERQ, the “%DQ6-EBV Binding (PANDEMRIX motif)” value was determined as 78.07%.

As to RTTIMAAFNG[N > D]TEGRTSDMR, the “%DQ6-EBV Binding (PANDEMRIX motif)” value is listed as 12.48%. Take LEVLMEWLKT[R]PILSPLTKG: the “%DQ6-EBV Binding (X179A motif)” value was determined as 116.06%.

Turning to NALNGNGDPN[N]MDKAVKLYR, the “%DQ6-EBV Binding (X179A motif)” value is on record as 32.79%.
